Key:
[1] = target: T1, human angiotensin II type 1 receptor (Homo sapiens, UniProt P30556); test: Angiotensin II type 1 receptor inhibitory effect (aequorin luminescence, angiotensin II at EC80); format: cell-based; details: CHO-K1-mt aequorin-Gα16 cells expressing human AT1 receptor
T1 construct: expressed in transfected cells; host or cells: CHO-K1-mt aequorin-Gα16 cells
T1 sequence (P30556 1-359): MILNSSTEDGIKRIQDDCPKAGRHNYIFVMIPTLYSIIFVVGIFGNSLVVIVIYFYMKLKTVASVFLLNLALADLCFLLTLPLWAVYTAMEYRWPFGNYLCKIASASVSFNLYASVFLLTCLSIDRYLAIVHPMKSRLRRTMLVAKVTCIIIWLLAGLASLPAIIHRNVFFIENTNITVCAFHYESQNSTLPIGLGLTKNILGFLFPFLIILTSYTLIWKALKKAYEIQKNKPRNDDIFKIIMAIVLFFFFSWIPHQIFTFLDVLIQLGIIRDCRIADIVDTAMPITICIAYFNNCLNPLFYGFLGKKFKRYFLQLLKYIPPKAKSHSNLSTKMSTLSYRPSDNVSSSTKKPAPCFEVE
Experimental: The inhibitory effect on angiotensin II type 1 receptor was studied by the following method.
CHO-K1-mt aequorin-Gα16 cells forced to express human angiotensin II type 1 receptor (Accession Number: NP 000676.1) were cultured in an antibiotic-free medium for 18 hours and then treated with PBS-EDTA (5 mM EDTA). After centrifugation (2 minutes, 405×g, room temperature), the cells were suspended in assay buffer (DMEM/HAM's F12 with HEPES+0.1% BSA protease free).
1×10^6 cells/mL of the cells were incubated at room temperature for 4 hours or more in the presence of Coelenterazin h (Molecular Probes) at a final concentration of 5 µM to confirm the agonist response by angiotensin II, and determine the concentration of angiotensin II corresponding to EC 80.
(§1) Then, 50 μL of the cell suspension treated with Coelenterazin h at 10,000 cells/well and 50 μL of assay buffer containing the test substance (final concentration: 0.5% DMSO) were added to a 96-well plate. After 15 minutes, 100 μL of angiotensin II solution was added so that the final concentration reached the EC80 concentration, and the receptor activity was measured by the amount of luminescence using FDSS6000 (Hamamatsu Photonics). IC50 values were calculated using XLfit (IDBS).

[2] = target: T2, human endothelin A receptor (Homo sapiens, UniProt P25101); test: Endothelin A receptor inhibitory effect (aequorin luminescence, endothelin at EC80); format: cell-based; details: CHO-K1-mt aequorin cells expressing human endothelin A receptor, read-out: ETA Receptor Inhibitory Effect
T2 construct: expressed in transfected cells; host or cells: CHO-K1-mt aequorin cells
T2 sequence (P25101 21-427): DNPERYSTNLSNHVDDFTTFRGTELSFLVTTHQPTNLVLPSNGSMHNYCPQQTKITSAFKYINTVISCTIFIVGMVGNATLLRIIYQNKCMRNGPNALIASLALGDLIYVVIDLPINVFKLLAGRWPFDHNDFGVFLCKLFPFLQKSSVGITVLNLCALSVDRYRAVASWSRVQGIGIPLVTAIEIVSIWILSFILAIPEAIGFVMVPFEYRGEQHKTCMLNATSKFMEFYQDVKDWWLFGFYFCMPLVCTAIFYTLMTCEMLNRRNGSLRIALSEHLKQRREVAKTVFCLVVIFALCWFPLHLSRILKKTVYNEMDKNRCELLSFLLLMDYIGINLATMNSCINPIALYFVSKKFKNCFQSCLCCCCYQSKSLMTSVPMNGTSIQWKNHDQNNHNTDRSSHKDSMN
Experimental: The inhibitory effect on endothelin A receptor was studied by the following method.
CHO-K1-mt aequorin cells forced to express human endothelin A receptor (Accession Number: NP_001948.1) were cultured in an antibiotic-free medium for 18 hours and then treated with PBS-EDTA (5 mM EDTA). After centrifugation (2 minutes, 405×g, room temperature), the cells were suspended in assay buffer (DMEM/HAM'S F12 with HEPES+0.1% BSA protease free). 1×10^6 cells/mL of the cells were incubated at room temperature for 4 hours in the presence of Coelenterazin h (Molecular Probes) at a final concentration of 5 μM to confirm the agonist response by endothelin, and determine the concentration of endothelin corresponding to EC 80.
as §1, with “endothelin” for “100 μL of angiotensin II solution”

[3] = tested on: Angiotensin II-Induced Hypertensive Activity; test: Suppressive effect on angiotensin II-induced hypertensive activity; format: in vivo; details: anesthetized male Wistar rats; 1 mg/kg intravenously over 10 minutes, then ATII 300 ng/kg i.v.; 20 seconds after ATII; n=3
Experimental: Male Wistar rats aged 8 to 12 weeks underwent catheterization of the trachea for airway management, catheterization of the carotid artery for blood pressure measurement, and catheterization of the femoral vein for angiotensin II (ATII) administration, under analgesic treatment and urethane anesthesia. After confirming that blood pressure and heart rate had stabilized, 1 mg/kg (15 mL/kg) of solvent (PBS) or test substance (the compound of Example 1) adjusted with the solvent was administered intravenously over 10 minutes. Then, ATII (300 ng/kg) was administered intravenously and blood pressure was monitored until 10 minutes after administration. The test was performed with n=3 in each group. For analysis, using 2 minutes before ATII administration as a pre-value, the systolic and diastolic blood pressures at the pre-value and 20 seconds immediately after ATII administration, when the blood pressure is maximum, were determined and the differences (delta values) from the pre-values were calculated. Student's t-test was used to compare the delta values between the solvent administration group and test substance administration group.

Row | IC50 [1] [nM] | IC50 [2] [nM] | SMILES | Diastolic Blood Pressure, difference (delta value) from pre-value [3] | Systolic Blood Pressure, difference (delta value) from pre-value [3]
1 | 1 to 100 | 1 to 100 | CCCCC1=NC2(CCCC2)C(=O)N1Cc1ccc(-c2ccccc2S(=O)(=O)Nc2ncc(C)nc2OC)c2c1COC2 [Example 2, 2-(7-((2-Butyl-4-oxo-1,3-diazaspiro[4,4]nona-1-en-3-yl)methyl)-1,3-dihydroisobenzofuran-4-yl)-N-(3-methoxy-5-methylpyrazin-2-yl)benzenesulfonamide] |  | 
2 | 1 to 100 | 1 to 100 | CCCCC1=NC2(CCCC2)C(=O)N1Cc1ccc(-c2ccccc2S(=O)(=O)Nc2noc(C)c2Cl)c2c1COC2 [Example 3, 2-(7-((2-Butyl-4-oxo-1,3-diazaspiro[4,4]nona-1-en-3-yl)methyl)-1,3-dihydroisobenzofuran-4-yl)-N-(4-chloro-5-methylisoxazol-3-yl)benzenesulfonamide] |  | 
3 | ≤ 1 | > 100 | CCCCC1=NC2(CCCC2)C(=O)N1Cc1ccc(-c2ccccc2S(=O)(=O)Nc2noc(C)c2C)c2c1COC2 [Example 1, 2-(7-((2-Butyl-4-oxo-1,3-diazaspiro[4,4]nona-1-en-3-yl)methyl)-1,3-dihydroisobenzofuran-4-yl)-N-(4,5-dimethylisoxazol-3-yl)benzenesulfonamide] | 9 ± 5 | 8 ± 3
